Assays:
HUVECs [1] = experiment: High-content imaging cytotoxicity in HUVECs, 24 h; type: cell-based, human; conditions: Homo sapiens, HUVEC, 24 h, HUVEC, 24 hr
Protocol: (§1) Similar to the cultivation of iCell®-endothelial cells, HUVEC maintenance and experimentation are detailed elsewhere ([Iwata et al. 2017]). Briefly, HUVECs were thawed, seeded, and grown in T75 tissue culture flasks in Medium 199 with EGM™-2 BulletKits™. HUVECs were incubated at regular cell culture conditions, 37°C and 5% CO2 , and passaged every 2–3 d using TrypLE™ Express. To ensure adequate endothelial function, experiments were performed with cells between passages 1 and 5.
Cytotoxicity was assessed in parallel experiments. For iCell®-endothelial cells, 384-well plates were coated with a 30μg/mL fibronectin solution ( 10μL/well ) and incubated for 2 h at RT. iCell®-endothelial cells were dissociated with TrypLE™ Express and prepared into a solution to achieve 750 cells per well and 50μL of total volume. The fibronectin solution was removed from the 384-well plate, and cells were plated. For HUVECs, similar dissociation and the same cell density were used for plating with the exclusion of the fibronectin solution. Cells were incubated at 37°C and 5% CO2 until a monolayer was formed, typically 3–5 d. 2×PCB plates were created with the requisite maintenance medium. Before treatment, the medium in the wells was exchanged to 25μL/well of fresh maintenance medium. 2×PCB chemical solutions ( […] ) were added. After 24 h incubation at 37°C and 5% CO2 , cells were stained with Hoechst 33342, MitoTracker™ Orange, and calcein AM for 20 min before replacing the staining media with FluoroBright DMEM. Cell culture plates were imaged using the ImageXpress® Micro Confocal high-content imaging system (Molecular Devices). Images were acquired at 10× magnification with DAPI, TRITC, or FITC filter (Hoechst 33342, MitoTracker™, or calcein AM, respectively). The multiwavelength cell scoring applications module in MetaXpress™ (Molecular Devices) was used to analyze the images.
(§2) Phenotypic responses were quantitatively assessed using concentration–response modeling as detailed elsewhere ([Sirenko et al. 2017]). Briefly, phenotypic readouts were normalized to vehicle controls and fit to a four-parameter logistic model in R studio software (version 3.1.1; R Development Core Team). Following EPA guidance on dose–response modeling, a cutoff of one standard deviation across means of vehicle control (i.e., 0.5% vol/vol DMSO in cell culture media) wells was applied to determine the point-of-departure (POD) values ([U.S. EPA 2012]). In the absence of a concentration–response, the highest tested concentration (i.e., 100μM ) was assigned as “no observable adverse effect level.” The concentration–response assessment R script, as well as templates for vehicle and concentration–response data, are available as a supplement to Sirenko et al. ([2017]). The ability of physicochemical properties to predict differences in PODs were evaluated by multiregression and mixed-effects modeling using R.

HUVECs [2] = experiment: Tube formation (tubulogenesis) assay in HUVECs, 18 h; type: cell-based, human; conditions: Homo sapiens, HUVEC, 18 h, HUVEC
Protocol: as §1
Tube formation assays were performed on Geltrex™ LDEV-free reduced growth factor basement membrane using both iCell®-endothelial cells and HUVECs in 384-well format exactly as detailed in Iwata et al. ([2017]). Negative controls included media-only and vehicle control (i.e., 0.5% vol/vol DMSO in cell culture media) wells. Positive assay controls were consistent with previously published reports ([Iwata et al. 2017]) and included TAB ( 50μM ) as a cytotoxic control, and nocodazole ( 0.01–1μM ), suramin ( 0.5–50μM ), histamine ( 0.1–100μM ), and chloroquine ( 1–500μM ) as chemicals associated with specific effects on ECs. Each test chemical was screened in triplicate for each concentration. Briefly, for iCell®-endothelial cells, starvation media consisted of VascuLife® basal medium with 4 mM L-glutamine LifeFactor and 0.1% iCell®-endothelial cells medium supplement. To counter dilution effects, a 2× concentration of the HUVEC maintenance medium supplemented with additional VEGF was created (EGM™-2 BulletKits™ at 2× concentration; also the VEGF component was replaced with 12.5 ng/mL VEGF). Geltrex™ LDEV-free reduced growth factor basement membrane was thawed overnight and dispensed into 384-well plates ( 10μL/well ) with tapping and rotating to evenly coat. The plates were incubated for 1 h in a cell culture incubator at 37°C and 5% CO2 . A 2× PCB plate (containing all of the PCBs and metabolites in dose–response) was prepared in basal media and added, 25μL per well, to the Geltrex™ coated plates. On separate plates, cells were seeded 7,500 (iPSC- ECs) or 3,500 (HUVEC) cells/well. Cells were exposed to chemicals overnight at 37°C and 5% CO2 and stained with 3× concentration of calcein AM ( 25μL /well, 6μmol/L ) for 15 min before imaging. Images were captured at 4× magnification with the FITC filter (calcein AM). Images were analyzed with the angiogenesis module software within MetaXpress™ (Molecular Devices).
as §2

Clc1ccc(Cl)c(-c2cc(Cl)ccc2Cl)c1 [PCB 52, 2,2′,5,5′-tetrachlorobiphenyl]
minimal effective concentration (HUVECs [1]; cyto, read-out: POD huvec.cyto.24hr): 0.67 µM | minimal effective concentration (HUVECs [1]; mito, read-out: POD huvec.mito.24hr): 0.57 µM | minimal effective concentration (HUVECs [1]; mitoint, read-out: POD huvec.mitoint.24hr): 6.01 µM | minimal effective concentration (HUVECs [1]; nma, read-out: POD huvec.nma.24hr): 4.97 µM | minimal effective concentration (HUVECs [1]; tc, read-out: POD huvec.tc.24hr): 0.67 µM | minimal effective concentration (HUVECs [2]; tube formation mtl, read-out: POD huvec.mtl.18hr): 100 µM | minimal effective concentration (HUVECs [2]; tube formation tlps, read-out: POD huvec.tlps.18hr): 100 µM | minimal effective concentration (HUVECs [2]; tube formation tta, read-out: POD huvec.tta.18hr): 100 µM | minimal effective concentration (HUVECs [2]; tube formation ttl, read-out: POD huvec.ttl.18hr): 100 µM
